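The compound was tested at five concentrations on cells cultured in 96-well plates, with a 48-hour exposure period. TGI: total growth inhibition.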
What was measured:
Assay in all cases: DTP human tumour cell line panel, 48 h
786-0 renal = test system: 786-0 renal
A498 renal = test system: A498 renal
A549 NSCLC = test system: A549 NSCLC
ACHN renal = test system: ACHN renal
BT-549 breast = test system: BT-549 breast
CAKI-1 renal = test system: CAKI-1 renal
CCRF-CEM leukemia = test system: CCRF-CEM leukemia
COLO 205 colon = test system: COLO 205 colon
DU-145 prostate = test system: DU-145 prostate
EKVX NSCLC = test system: EKVX NSCLC
HCC-2998 colon = test system: HCC-2998 colon
HCT-116 colon = test system: HCT-116 colon
HCT-15 colon = test system: HCT-15 colon
HL-60(TB) leukemia = test system: HL-60(TB) leukemia
HOP-62 NSCLC = test system: HOP-62 NSCLC
HOP-92 NSCLC = test system: HOP-92 NSCLC
HS 578T breast = test system: HS 578T breast
HT29 colon = test system: HT29 colon
IGROV1 ovarian = test system: IGROV1 ovarian
K-562 leukemia = test system: K-562 leukemia
KM12 colon = test system: KM12 colon
LOX IMVI melanoma = test system: LOX IMVI melanoma
M14 melanoma = test system: M14 melanoma
MALME-3M melanoma = test system: MALME-3M melanoma
MCF7 breast = test system: MCF7 breast
MDA-MB-231 breast = test system: MDA-MB-231 breast
MDA-MB-435 = test system: MDA-MB-435
MDA-N = test system: MDA-N
MOLT-4 leukemia = test system: MOLT-4 leukemia
NCI-H226 lung = test system: NCI-H226 lung
NCI-H23 lung = test system: NCI-H23 lung
NCI-H460 lung = test system: NCI-H460 lung
NCI-H522 lung = test system: NCI-H522 lung
NCI/ADR-RES ovarian = test system: NCI/ADR-RES ovarian
OVCAR-3 ovarian = test system: OVCAR-3 ovarian
OVCAR-4 ovarian = test system: OVCAR-4 ovarian
OVCAR-5 ovarian = test system: OVCAR-5 ovarian
OVCAR-8 ovarian = test system: OVCAR-8 ovarian
PC-3 prostate = test system: PC-3 prostate
RPMI-8226 leukemia = test system: RPMI-8226 leukemia
RXF 393 renal = test system: RXF 393 renal
SF-268 CNS = test system: SF-268 CNS
SF-295 CNS = test system: SF-295 CNS
SK-MEL-2 melanoma = test system: SK-MEL-2 melanoma
SK-MEL-28 melanoma = test system: SK-MEL-28 melanoma
SK-MEL-5 melanoma = test system: SK-MEL-5 melanoma
SK-OV-3 ovarian = test system: SK-OV-3 ovarian
SN12C renal = test system: SN12C renal
SNB-19 CNS = test system: SNB-19 CNS
SNB-75 CNS = test system: SNB-75 CNS
SR leukemia = test system: SR leukemia
SW-620 colon = test system: SW-620 colon
T-47D breast = test system: T-47D breast
U251 CNS = test system: U251 CNS
UACC-257 melanoma = test system: UACC-257 melanoma
UACC-62 melanoma = test system: UACC-62 melanoma
UO-31 renal = test system: UO-31 renal
SF-539 CNS = test system: SF-539 CNS
TK-10 renal = test system: TK-10 renal

O=CC1OC(=O)c2cc(O)c(O)c(O)c2-c2c(cc(O)c(O)c2O)C(=O)OC1C1OC(=O)c2cc(O)c(O)c(O)c2-c2c(O)c(O)c3oc(=O)c4c(c(O)c(O)c5oc(=O)c2c3c54)-c2c(cc(O)c(O)c2O)C(=O)OCC1O (stereo not given)
TGI (786-0 renal): 42.6 µM
TGI (A498 renal): > 100 µM
TGI (A549 NSCLC): > 100 µM
TGI (ACHN renal): > 100 µM
TGI (BT-549 breast): > 100 µM
TGI (CAKI-1 renal): 25.9 µM
TGI (CCRF-CEM leukemia): > 100 µM
TGI (COLO 205 colon): > 100 µM
TGI (DU-145 prostate): > 100 µM
TGI (EKVX NSCLC): > 100 µM
TGI (HCC-2998 colon): > 100 µM
TGI (HCT-116 colon): 32.6 µM
TGI (HCT-15 colon): > 100 µM
TGI (HL-60(TB) leukemia): > 100 µM
TGI (HOP-62 NSCLC): > 100 µM
TGI (HOP-92 NSCLC): > 100 µM
TGI (HS 578T breast): > 100 µM
TGI (HT29 colon): 29.6 µM
TGI (IGROV1 ovarian): > 100 µM
TGI (K-562 leukemia): 71.8 µM
TGI (KM12 colon): > 100 µM
TGI (LOX IMVI melanoma): 29.2 µM
TGI (M14 melanoma): > 100 µM
TGI (MALME-3M melanoma): > 100 µM
TGI (MCF7 breast): 40.6 µM
TGI (MDA-MB-231 breast): 37 µM
TGI (MDA-MB-435): 46.4 µM
TGI (MDA-N): 51.9 µM
TGI (MOLT-4 leukemia): 90.1 µM
TGI (NCI-H226 lung): > 100 µM
TGI (NCI-H23 lung): > 100 µM
TGI (NCI-H460 lung): > 100 µM
TGI (NCI-H522 lung): 85.7 µM
TGI (NCI/ADR-RES ovarian): > 100 µM
TGI (OVCAR-3 ovarian): > 100 µM
TGI (OVCAR-4 ovarian): 38.2 µM
TGI (OVCAR-5 ovarian): > 100 µM
TGI (OVCAR-8 ovarian): 41.2 µM
TGI (PC-3 prostate): > 100 µM
TGI (RPMI-8226 leukemia): > 100 µM
TGI (RXF 393 renal): > 100 µM
TGI (SF-268 CNS): > 100 µM
TGI (SF-295 CNS): 89.4 µM
TGI (SK-MEL-2 melanoma): > 100 µM
TGI (SK-MEL-28 melanoma): > 100 µM
TGI (SK-MEL-5 melanoma): > 100 µM
TGI (SK-OV-3 ovarian): > 100 µM
TGI (SN12C renal): 35.5 µM
TGI (SNB-19 CNS): > 100 µM
TGI (SNB-75 CNS): 93.8 µM
TGI (SR leukemia): > 100 µM
TGI (SW-620 colon): 47.7 µM
TGI (T-47D breast): > 100 µM
TGI (U251 CNS): 44.8 µM
TGI (UACC-257 melanoma): > 100 µM
TGI (UACC-62 melanoma): > 100 µM
TGI (UO-31 renal): > 100 µM

CN(C)CC(C)(C)CN1c2ccccc2Sc2ccccc21
TGI (786-0 renal): 25.5 µM
TGI (A498 renal): 26.4 µM
TGI (A549 NSCLC): 29.3 µM
TGI (ACHN renal): 28.3 µM
TGI (BT-549 breast): 27.6 µM
TGI (CAKI-1 renal): 24.7 µM
TGI (COLO 205 colon): 24.9 µM
TGI (DU-145 prostate): 24.8 µM
TGI (EKVX NSCLC): 28.8 µM
TGI (HCT-116 colon): 26.7 µM
TGI (HCT-15 colon): > 100 µM
TGI (HOP-62 NSCLC): 25.5 µM
TGI (HOP-92 NSCLC): 24.1 µM
TGI (HS 578T breast): 28.5 µM
TGI (HT29 colon): 22.6 µM
TGI (IGROV1 ovarian): 28.1 µM
TGI (K-562 leukemia): 22.8 µM
TGI (KM12 colon): 25.8 µM
TGI (LOX IMVI melanoma): 26.4 µM
TGI (M14 melanoma): 22.4 µM
TGI (MALME-3M melanoma): 27.9 µM
TGI (MCF7 breast): 30 µM
TGI (MDA-MB-231 breast): 24.3 µM
TGI (MDA-MB-435): 26.5 µM
TGI (MDA-N): 28.2 µM
TGI (MOLT-4 leukemia): 20.8 µM
TGI (NCI-H226 lung): 33.4 µM
TGI (NCI-H23 lung): 30.2 µM
TGI (NCI-H460 lung): 26.3 µM
TGI (NCI-H522 lung): 25.9 µM
TGI (NCI/ADR-RES ovarian): 26.3 µM
TGI (OVCAR-3 ovarian): 24.3 µM
TGI (OVCAR-4 ovarian): 26.5 µM
TGI (OVCAR-5 ovarian): 29.9 µM
TGI (OVCAR-8 ovarian): 28.6 µM
TGI (PC-3 prostate): 25.5 µM
TGI (RPMI-8226 leukemia): 35.8 µM
TGI (RXF 393 renal): 13 µM
TGI (SF-268 CNS): 27.5 µM
TGI (SF-295 CNS): 26.8 µM
TGI (SF-539 CNS): 34.3 µM
TGI (SK-MEL-2 melanoma): 28.8 µM
TGI (SK-MEL-28 melanoma): 26.8 µM
TGI (SK-MEL-5 melanoma): 29.4 µM
TGI (SK-OV-3 ovarian): 26 µM
TGI (SN12C renal): 25.9 µM
TGI (SNB-19 CNS): 29.5 µM
TGI (SNB-75 CNS): 18 µM
TGI (SR leukemia): 23.4 µM
TGI (SW-620 colon): 28.3 µM
TGI (T-47D breast): 29.3 µM
TGI (TK-10 renal): 26.9 µM
TGI (U251 CNS): 26.4 µM
TGI (UACC-257 melanoma): 24.7 µM
TGI (UACC-62 melanoma): 28.2 µM

c1ccc(/C(=N/Nc2ccccn2)c2cccnn2)cc1
TGI (786-0 renal): > 100 µM
TGI (A498 renal): > 100 µM
TGI (A549 NSCLC): > 69.8 µM
TGI (ACHN renal): 24.5 µM
TGI (BT-549 breast): > 100 µM
TGI (CAKI-1 renal): > 41.6 µM
TGI (COLO 205 colon): > 100 µM
TGI (DU-145 prostate): > 100 µM
TGI (EKVX NSCLC): 16.7 µM
TGI (HCC-2998 colon): > 100 µM
TGI (HCT-116 colon): > 100 µM
TGI (HCT-15 colon): > 100 µM
TGI (HL-60(TB) leukemia): 71.3 µM
TGI (HOP-62 NSCLC): > 63.8 µM
TGI (HOP-92 NSCLC): > 39.5 µM
TGI (HS 578T breast): > 79 µM
TGI (HT29 colon): > 58.8 µM
TGI (IGROV1 ovarian): 18 µM
TGI (K-562 leukemia): > 100 µM
TGI (KM12 colon): > 100 µM
TGI (LOX IMVI melanoma): > 100 µM
TGI (M14 melanoma): 18.5 µM
TGI (MALME-3M melanoma): > 67.9 µM
TGI (MCF7 breast): > 93.4 µM
TGI (MDA-MB-231 breast): > 75.5 µM
TGI (MDA-MB-435): > 100 µM
TGI (MDA-N): > 100 µM
TGI (MOLT-4 leukemia): 27.1 µM
TGI (NCI-H226 lung): 11.2 µM
TGI (NCI-H23 lung): > 50.3 µM
TGI (NCI-H460 lung): > 100 µM
TGI (NCI-H522 lung): 4.93 µM
TGI (NCI/ADR-RES ovarian): 13.2 µM
TGI (OVCAR-3 ovarian): > 100 µM
TGI (OVCAR-4 ovarian): > 100 µM
TGI (OVCAR-5 ovarian): > 100 µM
TGI (OVCAR-8 ovarian): 18.9 µM
TGI (PC-3 prostate): > 100 µM
TGI (RPMI-8226 leukemia): 17 µM
TGI (RXF 393 renal): > 100 µM
TGI (SF-268 CNS): 6.42 µM
TGI (SF-295 CNS): 29.7 µM
TGI (SF-539 CNS): 24.9 µM
TGI (SK-MEL-2 melanoma): > 100 µM
TGI (SK-MEL-28 melanoma): > 100 µM
TGI (SK-MEL-5 melanoma): 52.3 µM
TGI (SK-OV-3 ovarian): > 47.6 µM
TGI (SN12C renal): 40.7 µM
TGI (SNB-19 CNS): > 86.9 µM
TGI (SNB-75 CNS): 32.7 µM
TGI (SR leukemia): > 20.8 µM
TGI (SW-620 colon): > 78.8 µM
TGI (T-47D breast): > 100 µM
TGI (TK-10 renal): > 100 µM
TGI (U251 CNS): > 100 µM
TGI (UACC-257 melanoma): > 100 µM
TGI (UACC-62 melanoma): > 52.6 µM
TGI (UO-31 renal): 6.02 µM

Source: PubChem BioAssay (NCI)
